How the values were obtained:
BRPF2 = molecular target: T1, BRPF2 (Homo sapiens, UniProt O95696); assay: BROMOscan DiscoveRx Binding Constant Assay (BRPF2); conditions: qPCR readout
T1 construct: purchased DiscoveRx (BROMOscan); host or cells: T7 phage in E. coli host derived from BL21
T1 sequence (O95696 562-666 limits assumed): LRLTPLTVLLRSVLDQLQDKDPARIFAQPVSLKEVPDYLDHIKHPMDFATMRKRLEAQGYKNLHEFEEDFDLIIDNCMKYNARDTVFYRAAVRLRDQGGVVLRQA
From the text: (§1) Compounds that bind the bromodomain active site and directly (sterically) or indirectly (allosterically) prevent bromodomain binding to the immobilized ligand, will reduce the amount of protein captured on the solid support (Panels A & B). […] Screening “hits” are identified by measuring the amount of bromodomain captured in test versus control samples by using a quantitative, precise and ultra-sensitive qPCR method that detects the associated DNA label. In a similar manner, dissociation constants (Kd's) for test compound-bromodomain interactions are calculated by measuring the amount of bromodomain captured on the solid support as a function of the test compound concentration.
(§2) Bromodomain assays. T7 phage strains displaying bromodomains were grown in parallel in 24-well blocks in an E. coli host derived from the BL21 strain. E. coli were grown to log-phase and infected with T7 phage from a frozen stock (multiplicity of infection=0.4) and incubated with shaking at 32° C. until lysis (90-150 minutes). The lysates were centrifuged (5,000×g) and filtered (0.2 μm) to remove cell debris. Streptavidin-coated magnetic beads were treated with biotinylated small molecule or acetylated peptide ligands for 30 minutes at room temperature to generate affinity resins for bromodomain assays. The liganded beads were blocked with excess biotin and washed with blocking buffer (SeaBlock (Pierce), 1% BSA, 0.05% Tween 20, 1 mM DTT) to remove unbound ligand and to reduce non-specific phage binding. […] Test compounds were prepared as 1000× stocks in 100% DMSO and subsequently diluted 1:10 in monoethylene glycol (MEG) to create stocks at 100× the screening concentration (resulting stock solution is 10% DMSO/90% MEG). The compounds were then diluted directly into the assays such that the final concentration of DMSO and MEG were 0.1% and 0.9%, respectively. All reactions were performed in polystyrene 96-well plates in a final volume of 0.135 ml.
(§3) The beads were then re-suspended in elution buffer (lx PBS, 0.05% Tween 20, 2 μM nonbiotinylated affinity ligand) and incubated at room temperature with shaking for 30 minutes. The bromodomain concentration in the eluates was measured by qPCR.
(§4) An 11-point 3-fold serial dilution of each test compound was prepared in 100% DMSO at 1000× final test concentration. This serial is then diluted to 100× in ethylene glycol and subsequently diluted to 1× in the assay (final DMSO concentration=0.1%, Ethylene glycol concentration=0.9%). […] If the initial Kd determined was <0.169 nM (the lowest concentration tested), the measurement was repeated with a serial dilution starting at a lower top concentration.
(§5) Binding constants (Kd's) were calculated with a standard dose-response curve using the Hill equation: Response=Background+Signal−Background 1+(Kd Hill Slope/DoseHill Slope) The Hill Slope was set to −1. Curves were fitted using a non-linear least square fit with the Levenberg-Marquardt algorithm.

BRPF3 = molecular target: T2, BRPF3 (Homo sapiens, UniProt Q9ULD4); assay: BROMOscan DiscoveRx Binding Constant Assay (BRPF3); conditions: qPCR readout
T2 construct: purchased DiscoveRx (BROMOscan); host or cells: T7 phage in E. coli host derived from BL21
T2 sequence (Q9ULD4 589-693 limits assumed): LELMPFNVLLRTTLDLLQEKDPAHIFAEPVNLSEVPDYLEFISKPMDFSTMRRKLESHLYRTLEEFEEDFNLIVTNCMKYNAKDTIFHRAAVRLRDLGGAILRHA
From the text: as §1, §2, §3, §4, §5

BRPF1 = molecular target: T3, BRPF1 (Homo sapiens, UniProt P55201); assay: BROMOscan DiscoveRx Binding Constant Assay (BRPF1); conditions: qPCR readout
T3 construct: purchased DiscoveRx (BROMOscan); host or cells: T7 phage in E. coli host derived from BL21
T3 sequence (P55201 628-732 limits assumed): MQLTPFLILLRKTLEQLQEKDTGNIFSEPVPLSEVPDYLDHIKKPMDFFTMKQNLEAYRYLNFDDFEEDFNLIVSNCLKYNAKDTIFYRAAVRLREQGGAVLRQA
From the text: as §1, §2, §3, §4, §5

TRIM24 = molecular target: T4, TRIM24 (Homo sapiens, UniProt O15164); assay: BROMOscan DiscoveRx Binding Constant Assay (TRIM24); conditions: qPCR readout
T4 construct: purchased DiscoveRx (BROMOscan); host or cells: T7 phage in E. coli host derived from BL21
T4 sequence (O15164 899-1004 limits assumed): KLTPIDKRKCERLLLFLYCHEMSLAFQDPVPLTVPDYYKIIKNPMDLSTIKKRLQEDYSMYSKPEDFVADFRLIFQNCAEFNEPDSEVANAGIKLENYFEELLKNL
From the text: as §1, §2, §3, §4, §5

[1] = molecular target: T5, Recombinant human His-tagged Trim24-PHD-bromodomain (Homo sapiens, UniProt O15164); assay: Trim24 AlphaScreen Assay; assay type: binding; conditions: 5 nM Trim24 protein, 15 nM biotinylated H3K23ac (1-33aa) peptide
T5 construct: Recombinant human His-tagged Trim24-PHD-bromodomain (produced in-house); made in house
T5 sequence (O15164 824-1006 limits assumed): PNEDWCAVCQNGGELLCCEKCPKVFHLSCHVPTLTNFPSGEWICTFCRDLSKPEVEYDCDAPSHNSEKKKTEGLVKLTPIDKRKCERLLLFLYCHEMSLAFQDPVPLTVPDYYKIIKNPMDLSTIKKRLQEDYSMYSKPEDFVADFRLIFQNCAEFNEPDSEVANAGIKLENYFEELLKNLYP
Outline: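 AlphaScreen read-out after 2 h with streptavidin donor and Ni-chelate acceptor beads at 10 ug/mL each, following 1 h room-temperature incubation of compound, His-tagged PHD-bromodomain protein and biotin-H3K23ac (1-33aa) peptide in Hepes pH 7.5 buffer with NaCl and Triton X-100. Signals normalised between no-compound and no-protein wells; IC50 from four-parameter logistic curves.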

SMILES: CCCOc1cc(OCCCCCCN)cc(Oc2cc3c(cc2NS(=O)(=O)c2cn(C)cn2)n(C)c(=O)n3C)c1 [Example 8, N-(6-(3-((6-aminohexyl)oxy)-5-propoxyphenoxy)-1,3-dimethyl-2-oxo-2,3-dihydro-1H-benzo[d]imidazol-5-yl)-1-methyl-1H-imidazole-4-sulfonamide 2,2,2-trifluoroacetate]
- Kd (BRPF2): 1 to 10 nM
- Kd (BRPF3): 11 to 100 nM
- Kd (BRPF1): 1 to 10 nM
- Kd (TRIM24): < 1 nM
- IC50 [1]: 1 to 10 nM

SMILES: Cc1nc(S(=O)(=O)Nc2cc3c(cc2Oc2cccc(OCC(C)C)c2)n(C)c(=O)n3C)cn1C [Example 45, N-(6-(3-isobutoxyphenoxy)-1,3-dimethyl-2-oxo-2,3-dihydro-1H-benzo[d]imidazol-5-yl)-1,2-dimethyl-1H-imidazole-4-sulfonamide]
- Kd (BRPF2): 11 to 100 nM
- Kd (BRPF3): 11 to 100 nM
- Kd (BRPF1): 11 to 100 nM
- Kd (TRIM24): 1 to 10 nM
- IC50 [1]: 10 to 100 nM

SMILES: COCCCOc1cccc(Oc2cc3c(cc2NS(=O)(=O)c2cn(C)c(C)n2)n(C)c(=O)n3C)c1 [Example 46, N-(6-(3-(3-methoxypropoxy)phenoxy)-1,3-dimethyl-2-oxo-2,3-dihydro-1H-benzo[d]imidazol-5-yl)-1,2-dimethyl-1H-imidazole-4-sulfonamide]
- Kd (BRPF2): 11 to 100 nM
- Kd (BRPF3): > 100 nM
- Kd (BRPF1): 11 to 100 nM
- Kd (TRIM24): 11 to 100 nM
- IC50 [1]: 100 to 1000 nM

SMILES: CCCOc1cccc(Oc2cc3c(cc2NS(=O)(=O)c2ccc(OC)c(OC)c2)n(C)c(=O)n3C)c1 [Example 110, N-(1,3-dimethyl-2-oxo-6-(3-propoxyphenoxy)-2,3-dihydro-1H-benzo[d]imidazol-5-yl)-3,4-dimethoxybenzenesulfonamide]
- Kd (BRPF2): 11 to 100 nM
- Kd (BRPF3): 11 to 100 nM
- Kd (BRPF1): 1 to 10 nM
- Kd (TRIM24): 1 to 10 nM
- IC50 [1]: 10 to 100 nM

SMILES: CCCOc1cc(OCCCCCCNC(C)=O)cc(Oc2cc3c(cc2NS(=O)(=O)c2cn(C)cn2)n(C)c(=O)n3C)c1 [Example 242, N-(6-(3-((1,3-dimethyl-6-(1-methyl-1H-imidazole-4-sulfonamido)-2-oxo-2,3-dihydro-1H-benzo[d]imidazol-5-yl)oxy)-5-propoxyphenoxy)hexyl)acetamide]
- IC50 [1]: 10 to 100 nM

SMILES: CCCOc1cccc(Oc2cc3c(cc2NS(=O)(=O)c2cccc(OC/C=C/CCCN)c2)n(C)c(=O)n3C)c1 [Example 243, (E)-3-((6-aminohex-2-en-1-yl)oxy)-N-(1,3-dimethyl-2-oxo-6-(3-propoxyphenoxy)-2,3-dihydro-1H-benzo[d]imidazol-5-yl)benzenesulfonamide 2,2,2-trifluoroacetate]
- IC50 [1]: 10 to 100 nM

SMILES: C=CCN(c1cc2c(cc1Oc1cccc(OCCC)c1)n(C)c(=O)n2C)S(=O)(=O)c1cn(CC=C)cn1 [Example 244, N,1-diallyl-N-(1,3-dimethyl-2-oxo-6-(3-propoxyphenoxy)-2,3-dihydro-1H-benzo[d]imidazol-5-yl)-1H-imidazole-4-sulfonamide]
- IC50 [1]: 100 to 1000 nM

SMILES: CCCOc1cc(OCCCCCCN)cc(Oc2cc3c(cc2N(C)S(=O)(=O)c2ccc(OC)c(OC)c2)n(C)c(=O)n3C)c1 [Example 245, N-(6-(3-((6-aminohexyl)oxy)-5-propoxyphenoxy)-1,3-dimethyl-2-oxo-2,3-dihydro-1H-benzo[d]imidazol-5-yl)-3,4-dimethoxy-N-methylbenzenesulfonamide]
- IC50 [1]: 100 to 1000 nM

SMILES: CCCOc1cc(OCCCCN2CCOCC2)cc(Oc2cc3c(cc2NS(=O)(=O)c2ccc(OC)c(OC)c2)n(C)c(=O)n3C)c1 [Example 246, N-(1,3-dimethyl-6-(3-(4-morpholinobutoxy)-5-propoxyphenoxy)-2-oxo-2,3-dihydro-1H-benzo[d]imidazol-5-yl)-3,4-dimethoxybenzenesulfonamide 2,2,2-trifluoroacetate]
- IC50 [1]: 10 to 100 nM

SMILES: CCCOc1cc(OCCCCN2CCC(O)C2)cc(Oc2cc3c(cc2NS(=O)(=O)c2ccc(OC)c(OC)c2)n(C)c(=O)n3C)c1 (stereo not drawn) [Example 247, N-(6-{3-[4-(3-hydroxypyrrolidin-1-yl)butoxy]-5-propoxyphenoxy}-1,3-dimethyl-2-oxo-2,3-dihydro-1H-1,3-benzodiazol-5-yl)-3,4-dimethoxybenzene-1-sulfonamide]
- IC50 [1]: 10 to 100 nM

SMILES: CCCOc1cc(OCCCCN2CC(O)C2)cc(Oc2cc3c(cc2NS(=O)(=O)c2ccc(OC)c(OC)c2)n(C)c(=O)n3C)c1 [Example 248, N-(6-{3-[4-(3-hydroxyazetidin-1-yl)butoxy]-5-propoxyphenoxy}-1,3-dimethyl-2-oxo-2,3-dihydro-1H-1,3-benzodiazol-5-yl)-3,4-dimethoxybenzene-1-sulfonamide]
- IC50 [1]: 10 to 100 nM

SMILES: CCCOc1cc(OCCCCNC)cc(Oc2cc3c(cc2NS(=O)(=O)c2ccc(OC)c(OC)c2)n(C)c(=O)n3C)c1 [Example 249, N-(1,3-dimethyl-6-{3-[4-(methylamino)butoxy]-5-propoxyphenoxy}-2-oxo-2,3-dihydro-1H-1,3-benzodiazol-5-yl)-3,4-dimethoxybenzene-1-sulfonamide]
- IC50 [1]: 10 to 100 nM

SMILES: CCCOc1cc(OCCCCN2CCCC2)cc(Oc2cc3c(cc2NS(=O)(=O)c2ccc(OC)c(OC)c2)n(C)c(=O)n3C)c1 [Example 250, N-(1,3-dimethyl-2-oxo-6-{3-propoxy-5-[4-(pyrrolidin-1-yl)butoxy]phenoxy}-2,3-dihydro-1H-1,3-benzodiazol-5-yl)-3,4-dimethoxybenzene-1-sulfonamide]
- IC50 [1]: 10 to 100 nM

SMILES: CCCOc1cc(OCCCCN2CCC2)cc(Oc2cc3c(cc2NS(=O)(=O)c2ccc(OC)c(OC)c2)n(C)c(=O)n3C)c1 [Example 251, N-(6-{3-[4-(azetidin-1-yl)butoxy]-5-propoxyphenoxy}-1,3-dimethyl-2-oxo-2,3-dihydro-1H-1,3-benzodiazol-5-yl)-3,4-dimethoxybenzene-1-sulfonamide]
- IC50 [1]: 1 to 10 nM

SMILES: CCCOc1cc(OCCCCN)cc(Oc2cc3c(cc2NS(=O)(=O)c2cccc(C(=O)OC)c2)n(C)c(=O)n3C)c1 [Example 252, Methyl 3-({6-[3-(4-aminobutoxy)-5-propoxyphenoxy]-1,3-dimethyl-2-oxo-2,3-dihydro-1H-1,3-benzodiazol-5-yl}sulfamoyl)benzoate]
- IC50 [1]: 10 to 100 nM

SMILES: CCCOc1cc(OCCCCN(C)C)cc(Oc2cc3c(cc2NS(=O)(=O)c2cccc(C(=O)O)c2)n(C)c(=O)n3C)c1 [Example 253, 3-(N-(6-(3-(4-(dimethylamino)butoxy)-5-propoxyphenoxy)-1,3-dimethyl-2-oxo-2,3-dihydro-1H-benzo[d]imidazol-5-yl)sulfamoyl)benzoic acid]
- IC50 [1]: 10 to 100 nM

SMILES: CCCOc1cc(OCCCC[N+](C)(C)C)cc(Oc2cc3c(cc2NS(=O)(=O)c2ccc(OC)c(OC)c2)n(C)c(=O)n3C)c1 [Example 254, 4-(3-((6-(3,4-dimethoxyphenylsulfonamido)-1,3-dimethyl-2-oxo-2,3-dihydro-1H-benzo[d]imidazol-5-yl)oxy)-5-propoxyphenoxy)-N,N,N-trimethylbutan-1-aminium 2,2,2-trifluoroacetate]
- IC50 [1]: 1 to 10 nM

— patent US20160060260A1, “BROMODOMAIN INHIBITORS FOR TREATING DISEASE” (Board of Regents, The University of Texas System, priority 2014, published 2016)
